Assay results as given in patent US4465672A, “Stable S-adenosylmethionine salts, the process for their preparation, and therapeutic compositions which contain them as active principle” (Bioresearch S.p.A., priority 1981, dated 1984).
Where two headings read alike, the source gives them in different places.

Legend:
[1] = Residual moisture of the lyophilised salt; type: physicochemical
[2] = Wide pharmacological screening trial; settings: independent of the anion bonded to the SAM
physchem = settings: for DEGRADATION AT 45° C. AFTER 60 days: 1440 h; for DEGRADATION AT 45° C. AFTER 120 days: 2880 h; for DEGRADATION AT 45° C. AFTER 180 days: 4320 h; for DEGRADATION AT 45° C. AFTER 240 days: 5760 h; for DEGRADATION AT 45° C. AFTER 360 days: 8640 h
Description: The residual SAM percentage at the times indicated was determined by the new method described hereinafter, which ensures maximum accuracy of measurements in that it enables the SAM to be totally separated from all possible degradation products. The present method for determining the SAM is based on the use of HPLC.

[3] = prior art salts, cited from earlier work

SMILES	residual moisture ([1]; Tables 1 to 4)	DEGRADATION AT 45° C. AFTER 240 days (physchem)	DEGRADATION AT 45° C. AFTER 360 days (physchem)	further results
C[S+](CCC(N)C(=O)[O-])CC1OC(n2cnc3c(N)ncnc32)C(O)C1O (stereo not drawn) [SAM.1.5 H2 SO4.n CH3 SO3 H, n=1]	1%			
C[S+](CCC(N)C(=O)[O-])CC1OC(n2cnc3c(N)ncnc32)C(O)C1O (stereo not drawn) [SAM.1.5 H2 SO4.n CH3 SO3 H, n=2]	1.5%			
C[S+](CCC(N)C(=O)[O-])CC1OC(n2cnc3c(N)ncnc32)C(O)C1O (stereo not drawn) [SAM.1.5 H2 SO4.n CH3 SO3 H, n=3]	2%			
C[S+](CCC(N)C(=O)[O-])CC1OC(n2cnc3c(N)ncnc32)C(O)C1O (stereo not drawn) [SAM.5CH3 --C6 H4 --SO3 H]				residual moisture ([1]; Tables 1 to 4, n=5): 1.5%
C[S+](CCC(N)C(=O)[O-])CC1OC(n2cnc3c(N)ncnc32)C(O)C1O (stereo not drawn) [SAM.5CH3 SO3 H]				residual moisture ([1]; Tables 1 to 4, listed as SAM.n CH3 SO3 H, n=5): 1.5%; residual moisture ([1]; with or without lyophilisation support (Tables 5, 6)): 1.5%; activity and toxicity characteristics [2]: highly interesting activity and toxicity characteristics; degraded at 8640 h (physchem; DEGRADATION AT 45° C. AFTER 360 DAYS): 5%
C[S+](CCC(N)C(=O)[O-])CC1OC(n2cnc3c(N)ncnc32)C(O)C1O (stereo not drawn) [SAM.n CH3 SO3 H, n=1]	0.2%	100%	100%	DEGRADATION AT 45° C. AFTER 60 days (physchem): 100%; DEGRADATION AT 45° C. AFTER 120 days (physchem): 100%; DEGRADATION AT 45° C. AFTER 180 days (physchem): 100%
C[S+](CCC(N)C(=O)[O-])CC1OC(n2cnc3c(N)ncnc32)C(O)C1O (stereo not drawn) [SAM.n CH3 SO3 H, n=2]	0.5%	100%	100%	DEGRADATION AT 45° C. AFTER 120 days (physchem): 100%; DEGRADATION AT 45° C. AFTER 180 days (physchem): 100%
C[S+](CCC(N)C(=O)[O-])CC1OC(n2cnc3c(N)ncnc32)C(O)C1O (stereo not drawn) [SAM.n CH3 SO3 H, n=3]	0.8%	100%	100%	
C[S+](CCC(N)C(=O)[O-])CC1OC(n2cnc3c(N)ncnc32)C(O)C1O (stereo not drawn) [SAM.n CH3 SO3 H, n=4]	1%			
C[S+](CCC(N)C(=O)[O-])CC1OC(n2cnc3c(N)ncnc32)C(O)C1O (stereo not drawn) [SAM.n CH3 SO3 H, n=6]	2%			
C[S+](CCC(N)C(=O)[O-])CC1OC(n2cnc3c(N)ncnc32)C(O)C1O (stereo not drawn) [disulphatediparatoluene sulphonate, reference compound]				temperature up to which the salt is stable [3]: up to 45 °C
C[S+](CCC(N)C(=O)[O-])CC1OC(n2cnc3c(N)ncnc32)C(O)C1O (stereo not drawn) [drawing 5, n=1]	0.2%	100%	100%	DEGRADATION AT 45° C. AFTER 60 days (physchem): 100%; DEGRADATION AT 45° C. AFTER 120 days (physchem): 100%; DEGRADATION AT 45° C. AFTER 180 days (physchem): 100%
C[S+](CCC(N)C(=O)[O-])CC1OC(n2cnc3c(N)ncnc32)C(O)C1O (stereo not drawn) [drawing 5, n=2]	0.5%	100%	100%	DEGRADATION AT 45° C. AFTER 120 days (physchem): 100%; DEGRADATION AT 45° C. AFTER 180 days (physchem): 100%
C[S+](CCC(N)C(=O)[O-])CC1OC(n2cnc3c(N)ncnc32)C(O)C1O (stereo not drawn) [drawing 5, n=3]	0.8%	100%	100%	temperature up to which the salt is stable ([3]; listed as triparatoluene sulphonate): up to 25 °C
C[S+](CCC(N)C(=O)[O-])CC1OC(n2cnc3c(N)ncnc32)C(O)C1O (stereo not drawn) [drawing 5, n=4]	1%			
C[S+](CCC(N)C(=O)[O-])CC1OC(n2cnc3c(N)ncnc32)C(O)C1O (stereo not drawn) [drawing 5, n=6]	2%			
C[S+](CCC(N)C(=O)[O-])CC1OC(n2cnc3c(N)ncnc32)C(O)C1O (stereo not drawn) [drawing 6, n=1]	1%			
C[S+](CCC(N)C(=O)[O-])CC1OC(n2cnc3c(N)ncnc32)C(O)C1O (stereo not drawn) [drawing 6, n=2]	1.5%			
C[S+](CCC(N)C(=O)[O-])CC1OC(n2cnc3c(N)ncnc32)C(O)C1O (stereo not drawn) [drawing 6, n=3]	2%			
